Data on one compound can be found in patent US20100011610A1, “FLUIDIZED SPRAY DRYING” (Vertex Pharmaceuticals Incorporated, priority 2006, published 2010).

The nature of the data set: in vivo. The conditions noted are these: rat, po.

A value given as a limit tells only on which side of the number the result lay.

Turning to `CCC[C@H](NC(=O)[C@@H]1[C@H]2CCC[C@H]2CN1C(=O)[C@@H](NC(=O)[C@@H](NC(=O)c1cnccn1)C1CCCCC1)C(C)(C)C)C(=O)C(=O)NC1CC1` [VX-950, Telaprevir], the bioavailability was less than 0.5%.
